The values below come from PubChem BioAssay (NCI).

Among the test systems are NCI-H522 lung; MOLT-4 leukemia; HT29 colon; SNB-75 CNS; HOP-92 NSCLC; UACC-257 melanoma; SR leukemia; SF-268 CNS; SK-MEL-2 melanoma; OVCAR-5 ovarian.
Holding throughout (assay): inhibition of tumour cell growth, NCI panel, 48 h

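Each compound was tested at five concentrations against cells in 96-well plates for 48 hours. GI50: concentration for 50% inhibition of growth. At the TGI there is no net growth.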 Where only a bound is given, the exact number is not on record here.

Take `N#C/C(=C1C=C(Br)/C(=N\O)C=C\1Cl)c1cccc2ccccc12`: the TGI in the assay with NCI-H522 lung came out at 6.47 µM; with MOLT-4 leukemia, 17.6 µM; in the assay on HT29 colon it was 6.79 µM; in the assay with SNB-75 CNS, 0.79 µM; with HOP-92 NSCLC it was 21.9 µM; with UACC-257 melanoma, 20.5 µM. Further, the TGI in the assay on SR leukemia was determined as 13.8 µM; with SF-268 CNS it was 29.3 µM; in the assay with SK-MEL-2 melanoma, 8.9 µM; with OVCAR-5 ovarian, 18 µM.

On to `CS/C(N)=N\NC(=O)CCC(=O)Nc1ccccc1C(F)(F)F`, for which the TGI was above 100 µM in the assay on NCI-H522 lung; above 100 µM in the assay on MOLT-4 leukemia; above 100 µM in the assay on HT29 colon; above 83.1 µM in the assay with SNB-75 CNS; above 100 µM in the assay on HOP-92 NSCLC; above 100 µM in the assay on UACC-257 melanoma. Also, the TGI in the assay on SR leukemia, in the assay with SF-268 CNS, in the assay on SK-MEL-2 melanoma and in the assay with OVCAR-5 ovarian was above 100 µM in each case.

As for `CCOC(=O)[C@@H](N)CCC(=O)N[C@@H](CSCc1ccccc1)C(=O)N[C@@H](C(=O)OCC)c1ccccc1`, the GI50 in the assay with NCI-H522 lung is 16.2 µM; with MOLT-4 leukemia it was 24.8 µM; in the assay on HT29 colon it was 16.6 µM; in the assay with SNB-75 CNS it was 13 µM; in the assay with HOP-92 NSCLC, 10.9 µM; in the assay on UACC-257 melanoma it was 15.4 µM. For the same molecule, the GI50 in the assay on SR leukemia was 9.97 µM; in the assay on SF-268 CNS, 16.6 µM; with SK-MEL-2 melanoma, 16.7 µM; with OVCAR-5 ovarian, above 100 µM. Moreover, the TGI in the assay with NCI-H522 lung was 32.4 µM; with MOLT-4 leukemia, above 71.4 µM; in the assay with HT29 colon it was 33.6 µM; with SNB-75 CNS, 26.4 µM; with HOP-92 NSCLC, 24.2 µM; in the assay with UACC-257 melanoma, 29.7 µM. In addition, the TGI in the assay with SR leukemia was 33.2 µM; with SF-268 CNS, 31.3 µM; in the assay with SK-MEL-2 melanoma it was 32.7 µM; in the assay on OVCAR-5 ovarian it was above 100 µM.

For `COc1cc2nc3cc([N+](=O)[O-])ccc3c(NCCCNCCO)c2cc1OC`, the GI50 with NCI-H522 lung was 0.041 µM; with MOLT-4 leukemia, 0.244 µM; with HT29 colon, 0.212 µM; with SNB-75 CNS, 0.128 µM; in the assay on HOP-92 NSCLC it was 0.148 µM; in the assay on UACC-257 melanoma, 0.342 µM. The GI50 with SR leukemia is 0.238 µM; in the assay on SF-268 CNS, 0.126 µM; with SK-MEL-2 melanoma it was 0.187 µM; with OVCAR-5 ovarian, 0.22 µM. For the same molecule, the TGI with NCI-H522 lung came out at 0.213 µM; with MOLT-4 leukemia, 5.4 µM; in the assay on HT29 colon, 0.569 µM; in the assay with SNB-75 CNS, 0.26 µM; in the assay with HOP-92 NSCLC, 0.438 µM; with UACC-257 melanoma, 0.951 µM. Besides, the TGI with SR leukemia amounted to 1.71 µM; in the assay with SF-268 CNS, 0.478 µM; in the assay with SK-MEL-2 melanoma, 0.389 µM; in the assay on OVCAR-5 ovarian, 0.899 µM.

With `CC(C)C(Nc1c2ccccc2nc2ccccc12)C(=O)O` (stereo not given), the TGI in the assay on NCI-H522 lung, in the assay with MOLT-4 leukemia, in the assay with HT29 colon, in the assay on SNB-75 CNS, with HOP-92 NSCLC and in the assay with UACC-257 melanoma was above 100 µM in each case. Also, the TGI in the assay on SR leukemia, in the assay with SF-268 CNS, in the assay on SK-MEL-2 melanoma and in the assay on OVCAR-5 ovarian was above 100 µM in each case.

As to `CC(C)(C)c1cc(Br)c(O)c(CN(Cc2cc(C(C)(C)C)cc(Br)c2O)C2CCCCC2)c1`, the TGI in the assay on NCI-H522 lung was determined as 25.1 µM; in the assay with MOLT-4 leukemia, 26 µM; in the assay on HT29 colon, 19.3 µM; with SNB-75 CNS, 20.9 µM; in the assay on HOP-92 NSCLC, 28.8 µM; in the assay on UACC-257 melanoma, 16.5 µM. For the same molecule, the TGI with SR leukemia was found to be 25.6 µM; in the assay with SF-268 CNS, 26.4 µM; with SK-MEL-2 melanoma, 25.8 µM; in the assay on OVCAR-5 ovarian, 29.1 µM.

Turning to `C=C1C(=O)O[C@H]2[C@H]1CC/C(COC(=O)C(=O)c1cn(Cc3ccccc3)c3ccccc13)=C\CC[C@@]1(C)O[C@@H]21`, the GI50 is 1.63 µM with NCI-H522 lung; 2.35 µM with MOLT-4 leukemia; 2.02 µM with HT29 colon; 1.83 µM in the assay on SNB-75 CNS; 1.88 µM in the assay on HOP-92 NSCLC; 2.16 µM with UACC-257 melanoma. Also, the GI50 in the assay on SR leukemia is 1 µM; in the assay with SF-268 CNS, 2.16 µM; in the assay with SK-MEL-2 melanoma, 2.09 µM; in the assay with OVCAR-5 ovarian, 2.56 µM. Also, the TGI was 3.42 µM in the assay on NCI-H522 lung; 6.83 µM with MOLT-4 leukemia; 4.53 µM in the assay with HT29 colon; 8.4 µM in the assay with SNB-75 CNS; 4.38 µM with HOP-92 NSCLC; 5.21 µM in the assay on UACC-257 melanoma. Also, the TGI was above 100 µM with SR leukemia, 6.3 µM in the assay on SF-268 CNS, 4.71 µM with SK-MEL-2 melanoma and 6.82 µM in the assay with OVCAR-5 ovarian.

With `CN1CCN(CCCOc2ccc3nc(Nc4ccc(Cl)c(C(F)(F)F)c4)ccc3c2)CC1`, the GI50 with NCI-H522 lung is 14.1 µM; in the assay on MOLT-4 leukemia it was 8.2 µM; in the assay with HT29 colon, 2.67 µM; in the assay on SNB-75 CNS it was 7.09 µM; in the assay on HOP-92 NSCLC, 5.46 µM; in the assay on UACC-257 melanoma, 18.8 µM. Besides, the GI50 is 2.7 µM with SR leukemia, 14.1 µM in the assay with SF-268 CNS, 16.5 µM in the assay on SK-MEL-2 melanoma and 17 µM in the assay with OVCAR-5 ovarian. The TGI with NCI-H522 lung turned out to be 28.1 µM; in the assay on MOLT-4 leukemia, 24.3 µM; in the assay with HT29 colon, 8.38 µM; in the assay on SNB-75 CNS it was 20.5 µM; in the assay on HOP-92 NSCLC it was 18.8 µM; in the assay with UACC-257 melanoma it was 33.4 µM. In addition, the TGI in the assay with SR leukemia was 10.7 µM; in the assay on SF-268 CNS, 30 µM; with SK-MEL-2 melanoma, 31.6 µM; with OVCAR-5 ovarian, 35.4 µM.

Consider `COC(=O)[C@@H](C)CNS(=O)(=O)N(c1cc(C(F)(F)F)cc(C(F)(F)F)c1)C1CCN(Cc2ccc(F)cc2)CC1`, for which the GI50 in the assay on NCI-H522 lung is 14.9 µM; with MOLT-4 leukemia it was 11.5 µM; in the assay on HT29 colon it was 3.78 µM; in the assay with SNB-75 CNS it was 6.24 µM; in the assay with HOP-92 NSCLC, 5.76 µM; in the assay with UACC-257 melanoma it was 16.4 µM. The GI50 with SR leukemia was 3.81 µM; in the assay with SF-268 CNS, 11.5 µM; in the assay on SK-MEL-2 melanoma, 21 µM; in the assay with OVCAR-5 ovarian it was 15.8 µM. For the same molecule, the TGI in the assay with NCI-H522 lung is 37 µM; in the assay on MOLT-4 leukemia it was 27.4 µM; in the assay on HT29 colon it was 14.6 µM; in the assay with SNB-75 CNS it was 20.4 µM; in the assay on HOP-92 NSCLC it was 20 µM; in the assay with UACC-257 melanoma, 30.8 µM. Moreover, the TGI with SR leukemia was determined as 9.22 µM; in the assay on SF-268 CNS it was 26.3 µM; in the assay on SK-MEL-2 melanoma it was 41 µM; with OVCAR-5 ovarian, 29.7 µM.
